Reference: patent publication US20230399341A1, “7-PHENYL SUBSTITUTED 2-AMINOQUINAZOLINE INHIBITORS OF HPK1” (MERCK SHARP & DOHME LLC, priority 2020, published 2023)
Each block holds one compound with its values, some of them ahead of it.

Biological target: T1, Human HPK1, catalytic domain (Homo sapiens, UniProt Q92918)
T1 sequence (Q92918 1-346): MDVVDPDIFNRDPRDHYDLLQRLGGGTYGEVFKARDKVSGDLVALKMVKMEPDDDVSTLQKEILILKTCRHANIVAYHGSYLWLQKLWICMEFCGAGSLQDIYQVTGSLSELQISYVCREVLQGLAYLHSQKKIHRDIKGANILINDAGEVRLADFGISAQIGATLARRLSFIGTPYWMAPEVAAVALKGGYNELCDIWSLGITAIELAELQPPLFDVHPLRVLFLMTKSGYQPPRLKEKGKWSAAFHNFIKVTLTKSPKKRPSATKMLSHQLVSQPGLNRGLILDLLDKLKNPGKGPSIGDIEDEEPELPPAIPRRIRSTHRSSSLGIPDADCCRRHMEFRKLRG
Assay: HPK1-SLP76 TR-FRET Assay
Assay type: biochemical
Conditions: 75 pM HPK1, ATP 10 uM, SLP76 10 nM, 30 min pre-incubation, 60 min reaction

IC50: 111 nM
SMILES: COc1cc2c(cc1Nc1ncc3ccc(NCC4(C)COC4)cc3n1)CN(C)CC2 [Compound 3-62, N~2~-(6-methoxy-2-methyl-1,2,3,4-tetrahydroisoquinolin-7-yl)-N~7-[(3-methyloxetan-3-yl)-methyl]quinazoline-2,7-diamine]

IC50: 100 nM
SMILES: Cc1c(-c2c(F)c(N)c3cnc(Nc4ccc(CS(=O)(=O)C5CC5)cc4)nc3c2Cl)cnc2c1NCCO2 [Compound 2-137, 8-chloro-N2-(4-((cyclopropylsulfonyl)methyl)phenyl)-6-fluoro-7-(8-methyl-2,3-dihydro-1H-pyrido[2,3-b][1,4]oxazin-7-yl)quinazoline-2,5-diamine]

IC50: 0.126 nM
SMILES: Cc1c(-c2c(F)c(N)c3cnc(Nc4ccc(CS(C)(=O)=O)cc4F)nc3c2Cl)cnc2c1NCCO2 (single isomer, unassigned) [Compound 2-131, 8-chloro-6-fluoro-N2-(2-fluoro-4-((methylsulfonyl)methyl)phenyl)-7-(8-methyl-2,3-dihydro-1H-pyrido[2,3-b][1,4]oxazin-7-yl)quinazoline-2,5-diamine]

IC50: 0.0614 nM
SMILES: Cc1c(-c2cc3nc(Nc4ccc5c(c4)CN(C)CC5(C)C)ncc3c(N)c2F)cnc2c1NCCO2 [Compound 2-150, 6-fluoro-7-(8-methyl-2,3-dihydro-1H-pyrido[2,3-b][1,4]oxazin-7-yl)-N~2~- (2,4,4-trimethyl-1,2,3,4-tetrahydroisoquinolin-7-yl)quinazoline-2,5-diamine]

IC50: 0.169 nM
SMILES: CCC1COC(=O)N1c1cc(N)c2cnc(Nc3cc4c(cc3OC)CCN(C)C4)nc2c1 (single isomer, unassigned) [Compound 3-16, (S or R)-3-{5-amino-2-[(6-methoxy-2-methyl-1,2,3,4-tetrahydroisoquinolin-7-yl)amino]quinazolin-7-yl}-4-ethyl-1,3-oxazolidin-2-one]

IC50: 0.101 nM
SMILES: C[C@H]1COC(=O)N1c1cc(N)c2cnc(Nc3ccc(S(C)(=O)=O)cc3)nc2c1 [Compound 3-76, (S)-3-(5-amino-2-((4-(methyl-sulfonyl)phenyl)amino)quinaz-olin-7-yl)-4-methyloxazolidin-2-one]

IC50: 22.5 nM
SMILES: COc1cc2c(cc1Nc1ncc3ccc(Nc4cccc(C#N)n4)cc3n1)CN(C)CC2 [Compound 3-27, 6-({2-[(6-methoxy-2-methyl-1,2,3,4-tetrahydroisoquinolin-7-yl)amino]quinazolin-7-yl}-amino)-pyridine-2-carbonitrile]

IC50: 1.23 nM
SMILES: Cc1c(-c2cc3nc(Nc4cc5c(cn4)CCN(C)C5)ncc3c(N)c2F)cnc2c1NCCO2 [Compound 2-142, 6-fluoro-7-(8-methyl-2,3-dihydro-1H-pyrido[2,3-b][1,4]oxazin-7-yl)-N~2~- (6-methyl-5,6,7,8-tetrahydro-2,6-naphthyridin-3-yl)quinazoline-2,5-diamine]

IC50: 0.126 nM
SMILES: Cc1c(-c2cc3nc(Nc4ccc5c(c4)CN(C)CC5)ncc3c(N)c2F)cnc2nc[nH]c12 [Compound 2-162, 6-fluoro-7-(7-methyl-1H-imidazo[4,5-b]pyridin-6-yl)-N~2~-(2-methyl-1,2,3,4-tetrahydroisoquinolin-7-yl)quinazoline-2,5-diamine]

Further lines, the compound ahead of its results:

SMILES: COc1cc2c(cc1Nc1ncc3c(N)c(F)c(-c4cnc5ncsc5c4)cc3n1)CN(C)CC2 [Compound 2-47, 6-fluoro-N~2~-(6-methoxy-2-methyl-1,2,3,4-tetrahydroisoquinolin-7-yl)-7-([1,3]thiazolo[4,5-b]pyridin-6-yl)quinazoline-2,5-diamine]
IC50: 24.6 nM

SMILES: COc1cc2c(cc1Nc1ncc3ccc(-c4cnn(C)c4)cc3n1)CNCC2 [Compound 1-34, N-(6-methoxy-1,2,3,4-tetrahydroisoquinolin-7-yl)-7-(1-methyl-1H-pyrazol-4-yl)quinazolin-2-amine]
IC50: 1.49 nM

SMILES: COc1cc2c(cc1Nc1ncc3ccc(-c4cccc(CNC(C)=O)c4)cc3n1)CN(C)CC2 [Compound 1-98, N-[(3-{2-[(6-methoxy-2-methyl-1,2,3,4-tetrahydroisoquinolin-7-yl)amino]quinazolin-7-yl}phenyl)methyl]acetamide]
IC50: 203 nM

SMILES: Cc1c(-c2c(F)c(N)c3cnc(Nc4ccc(CS(C)(=O)=O)cc4)nc3c2Cl)cnc2c1NCCO2 [Compound 2-92, (+ or −)-8-chloro-6-fluoro-7-(8-methyl-2,3-dihydro-1H-pyrido[2,3-b[1,4]oxazin-7-yl)-N~2~- {4-[(methylsulfonyl)methyl]phenyl}quinazoline-2,5-diamine]
IC50: 0.0399 nM

SMILES: Cc1c(-c2c(F)c(N)c3cnc(Nc4ccc5c(c4)CN(C)CC54CC4)nc3c2C#N)cnc2c1NCCO2 [Compound 2-109, (+ or −)-5-amino-6-fluoro-2-((2′-methyl-2′,3′-dihydro-1′H-spiro[cyclopropane-1,4′-isoquinolin]-7′-yl)amino)-7-(8-methyl-2,3-dihydro-1H-pyrido[2,3-b][1,4]oxazin-7-yl)quinazoline-8-carbonitrile]
IC50: 0.0528 nM

SMILES: COc1cc2c(cc1Nc1ncc3cc(F)c(-c4cnc5c(c4C)NCCO5)cc3n1)CN(C)CC2 [Compound 1-95, 6-fluoro-N-(6-methoxy-2-methyl-1,2,3,4-tetrahydroisoquinolin-7-yl)-7-(8-methyl-2,3-dihydro-1H-pyrido[2,3-b][1,4]oxazin-7-yl)quinazolin-2-amine]
IC50: 2.32 nM

SMILES: Cc1c(-c2c(F)c(N)c3cnc(Nc4cc5c(cc4F)CCN(C)C5)nc3c2Cl)cnc2c1NCCO2 [Compound 2-107, (+ or −)-8-chloro-6-fluoro-N2-(6-fluoro-2-methyl-1,2,3,4-tetrahydroisoquinolin-7-yl)-7-(8-methyl-2,3-dihydro-1H-pyrido[2,3-b][1,4]oxazin-7-yl)quinazoline-2,5-diamine]
IC50: 0.0862 nM

SMILES: CNS(=O)(=O)c1cccc(Nc2ncc3c(N)c(F)c(-c4cnc5c(c4C)NCCO5)cc3n2)c1 [Compound 2-34]
IC50: 0.118 nM

SMILES: CNC(=O)c1ccc(-c2ccc3cnc(Nc4cc5c(cc4OC)CCN(C)C5)nc3c2)cn1 [Compound 1-21, 5-{2-[(6-methoxy-2-methyl-1,2,3,4-tetrahydroisoquinolin-7-yl)amino]quinazolin-7-yl}-N-methylpyridine-2-carboxamide]
IC50: 294 nM

SMILES: COc1ccc(-c2ccc3cnc(Nc4cc5c(cc4OC)CCNC5)nc3c2)cn1 [Compound 1-39, 7-(6-methoxypyridin-3-yl)-N-(6-methoxy-1,2,3,4-tetrahydroisoquinolin-7-yl)quinazolin-2-amine]
IC50: 34.8 nM

SMILES: Cc1c(-c2cc3nc(Nc4ccc5c(c4)CN(C)CC5)ncc3cc2F)cnc2c1NCCO2 [Compound 1-114, 6-fluoro-7-(8-methyl-2,3-dihydro-1H-pyrido[2,3-b][1,4]oxazin-7-yl)-N-(2-methyl-1,2,3,4-tetrahydroisoquinolin-7-yl)quinazolin-2-amine]
IC50: 0.0883 nM

SMILES: COc1cc2c(cc1Nc1ncc3ccc(-c4cccc(S(=O)(=O)N5CCOCC5)c4)cc3n1)CNCC2 [Compound 1-77, N-(6-methoxy-1,2,3,4-tetrahydroisoquinolin-7-yl)-7-{3-[(morpholin-4-yl)sulfonyl]phenyl}quinazo-lin-2-amine]
IC50: 24.7 nM

SMILES: COc1cc2c(cc1Nc1ncc3ccc(-c4ccc(NC(C)=O)nc4)cc3n1)CN(C)CC2 [Compound 1-18, N-(5-{2-[(6-methoxy-2-methyl-1,2,3,4-tetrahydroisoquinolin-7-yl)amino]quinazolin-7-yl}pyridin-2-yl)acetamide]
IC50: 82.2 nM
